Reference: a compilation of properties of binary mixtures (doi:10.1016/j.molliq.2012.02.014)

Assay: xn = mol fraction of the nth substance listed
Conditions: 101 kPa

CN(CCO)CCO + CCCCCC[n+]1ccn(C)c1.O=S(=O)([N-]S(=O)(=O)C(F)(F)F)C(F)(F)F
x1 = 1
Conditions | viscosity [mPa·s]
308.15 K | 46.2
323.15 K | 24.7

CCCCCC[n+]1ccn(C)c1.O=S(=O)([N-]S(=O)(=O)C(F)(F)F)C(F)(F)F + CN(CCO)CCO
viscosity [mPa·s]
Conditions | x2 = 0 | x2 = 0.0989 | x2 = 0.1899 | x2 = 0.2977 | x2 = 0.3999 | x2 = 0.4988 | x2 = 0.6075 | x2 = 0.7049 | x2 = 0.801 | x2 = 0.899
303.15 K | – | 52.4 | 46.6 | 40.8 | 37 | 35.1 | 39 | 44.3 | – | 55.1
308.15 K | 50.4 | – | 42.1 | 38 | – | 31.3 | 33.7 | 37.4 | 40.8 | 43.7
313.15 K | 41.4 | 39.2 | 36.7 | 34 | – | 29.8 | – | 31.8 | 34.3 | –
318.15 K | 35 | 33.1 | 30.8 | 27.9 | 25.4 | 23.9 | 23.8 | – | 27.3 | 28.9
323.15 K | 28.8 | 27.7 | 26 | – | 22.8 | 22.1 | 22.4 | – | 23.7 | 24.4
